Where a name gives a salt, the structure may show the parent alone.
Target: T1, IRAK4 (Homo sapiens, UniProt Q9NWZ3)
T1 construct: purchased CARNA Bioscience 09-145
T1 sequence (Q9NWZ3 1-460): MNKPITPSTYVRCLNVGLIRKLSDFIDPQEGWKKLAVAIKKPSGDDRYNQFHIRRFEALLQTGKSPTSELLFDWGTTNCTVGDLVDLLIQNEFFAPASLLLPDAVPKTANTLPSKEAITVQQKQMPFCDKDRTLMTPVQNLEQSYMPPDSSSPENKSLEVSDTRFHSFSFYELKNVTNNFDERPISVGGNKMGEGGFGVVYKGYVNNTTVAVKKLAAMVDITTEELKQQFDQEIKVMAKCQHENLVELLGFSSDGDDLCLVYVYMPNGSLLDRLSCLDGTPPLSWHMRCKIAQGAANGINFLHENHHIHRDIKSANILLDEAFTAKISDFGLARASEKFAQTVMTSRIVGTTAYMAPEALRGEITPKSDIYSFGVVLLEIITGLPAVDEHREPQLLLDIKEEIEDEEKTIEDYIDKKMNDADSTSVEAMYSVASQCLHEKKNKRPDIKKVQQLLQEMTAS
Assay: IRAK-4 activity inhibition assay (Caliper)
Type: biochemical
Settings: 3.5 nM IRAK4, 1.5 μM Peptide 8, 37 μM ATP, 28° C., 40 minutes
Procedure: A 1× kinase base buffer was prepared from 50 mM HEPES, pH 7.5 and 0.0015% Brij-35. A stop buffer was prepared from 100 mM HEPES, pH 7.5, 0.015% Brij-35, 0.2% Coating Reagent #3, and 50 mM EDTA.
Test compound was diluted to 50× of the final desired highest inhibitor concentration in reaction by 100% DMSO. 100 ul of this compound dilution was transferred to a well in a 96-well plate.
Test compound was serially diluted by transferring 30 μl to 60 μl of 100% DMSO in the next well and so forth for a total of 10 concentrations. 100 μl of 100% DMSO was added to two empty wells for no compound control and no enzyme control in the same 96-well plate.
A new 96-well plate was marked as intermediate plate. 5 μl of compound serial dilution was transferred from source plate to the corresponding wells of the intermediate plate. 45 μl of 1× kinase base buffer (KB buffer) was added to each well of the intermediate plate. The intermediate plate was placed for 10 min on a shaker.
5 μl of each well was transferred from the 96-well intermediate plate to a 384-well plate in duplicates. For example, A1 of the 96-well plate is transferred to A1 and A2 of the 384-well plate. A2 of the 96-well plate is transferred to A3 and A4 of the 384-well plate, and so on.
IRAK4 and DTT in 1× kinase base buffer was added. The 2.5× enzyme mix contained 8.8 nM IRAK4 and 5 mM DTT.
Peptide 8, ATP, MgCl2 and MnCl2 were added in the 1× kinase base buffer. The 2.5× peptide mix contained 3.75 μM peptide 8, 92.5 μM ATP, 12.5 mM MgCl2 and 2.5 mM MnCl2.
Assay plate already contained 5 μl of compound in 10% DMSO. Added 10 μl of 2.5× enzyme solution to each well of the 384-well assay plate, except no enzyme control wells. The final concentration of IRAK4 in reaction was 3.5 nM. Added 10 μl of 1× kinase base buffer to no enzyme control wells in the assay plate. Incubated at room temperature for 10 min.
Added 10 μl of 2.5× peptide solution to each well of the 384-well assay plate. The final concentration of Peptide 8 and ATP was 1.5 μM and 37 μM, respectively. Incubated at 28° C. for 40 minutes. Added 25 μl of stop buffer to stop reaction. Collected data on Caliper.
Copied conversion % data from Caliper program. Converted conversion % values to percent inhibition values. Percent inhibition=(max−conversion %)/(max−min)*100, where “max” means the conversion % of DMSO control and “min” means the conversion % of no enzyme control.

`CN(C)[C@H]1CC[C@H](Nc2ncnc3[nH]cc(C#N)c23)CC1` [Compound I-1, 4-[[4-(dimethylamino)cyclohexyl]amino]-7H-pyrrolo[2,3-d]pyrimidine-5-carbonitrile] and `CN(C)[C@H]1CC[C@H](Nc2ncnc3[nH]cc(F)c23)CC1` [Compound I-3, (trans)-N^1-(5-fluoro-7H-pyrrolo[2,3-d]pyrimidin-4-yl)-N^4,N^4-dimethylcyclohexane-1,4-diamine] fall in the same range of IC50: 0.1 to 1 µM for the first, 0.1 to 1 µM for the second.

First: CN(C)[C@H]1CC[C@H](Nc2nc(Nc3ccccc3)nc3[nH]ccc23)CC1 [Compound I-2, 4-N-[4-(dimethylamino)cyclohexyl]-2-N-phenyl-7H-pyrrolo[2,3-d]pyrimidine-2,4-diamine]
Second: CN(C)[C@H]1CC[C@H](Nc2nc(N)nc3[nH]ccc23)CC1 [Compound I-8, 4-N-[4-(dimethylamino)cyclohexyl]-7H-pyrrolo[2,3-d]pyrimidine-2,4-diamine]
The IC50 of the first is lower: 0.1 to 1 µM for the first, ≥ 10 µM for the second. The first is the more potent here.

`CN(C)[C@H]1CC[C@H](Oc2ncnc3[nH]cc(F)c23)CC1` [Compound I-4, (trans)-4-((5-fluoro-7H-pyrrolo[2,3-d]pyrimidin-4-yl)oxy)-N,N-dimethylcyclohexanamine] and `CN(C)[C@H]1CC[C@H](Oc2ncnc3[nH]cc(C#N)c23)CC1` [Compound I-5, 4-[[4-(dimethylamino)cyclohexyl]oxy]-7H-pyrrolo[2,3-d]pyrimidine-5-carbonitrile] fall in the same range of IC50: 1 to 10 µM for the first, 1 to 10 µM for the second.

`Fc1c[nH]c2ncnc(O[C@H]3CC[C@H](N4CCOCC4)CC3)c12` [Compound I-6, 4-((trans)-4-((5-fluoro-7H-pyrrolo[2,3-d]pyrimidin-4-yl)oxy)cyclohexyl)morpholine] and `N#Cc1c[nH]c2ncnc(O[C@H]3CC[C@H](N4CCOCC4)CC3)c12` [Compound I-7, 4-(trans-(4-morpholinocyclohexyl)oxy)-7H-pyrrolo[2,3-d]pyrimidine-5-carbonitrile] fall in the same range of IC50: 1 to 10 µM for the first, 1 to 10 µM for the second.

`CN(C)[C@H]1CC[C@H](Nc2ncnc3oc4c(c23)CCC4)CC1` [Compound I-10, N,N-dimethyl-4-N-[7-oxa-9,11-diazatricyclo[6.4.0.0[2,6]]dodeca-1(12),2(6),8,10-tetraen-12-yl]-trans-cyclohexane-1,4-diamine] and `N[C@H]1CC[C@H](Nc2ncnc3oc4c(c23)CCC4)CC1` [Compound I-11, N^1-(6,7-dihydro-5H-cyclopenta[4,5]furo[2,3-d]pyrimidin-4-yl)-trans-cyclohexane-1,4-diamine] cannot be ordered by IC50: 1 to 10 µM for the first, ≥ 10 µM for the second.

`CN(C)[C@H]1CC[C@H](Nc2ncnc3occc23)CC1` [Compound I-12, N^1-(furo[2,3-d]pyrimidin-4-yl)-trans-N^4,N^4-dimethylcyclohexane-1,4-diamine formate] and `CN(C)[C@H]1CC[C@H](Oc2ncnc3occc23)CC1` [Compound I-14, trans-4-(furo[2,3-d]pyrimidin-4-yloxy)-N,N-dimethylcyclohexanamine formate] cannot be ordered by IC50: ≥ 10 µM for the first, ≥ 10 µM for the second.

`c1nc(O[C@H]2CC[C@H](N3CCOCC3)CC2)c2ccoc2n1` [Compound I-13, 4-(((trans)-4-morpholinocyclohexyl)oxy)furo[2,3-d]pyrimidine] was tested, and the IC50 was ≥ 10 µM.

From patent US20140018361A1, “IRAK INHIBITORS AND USES THEREOF” (Nimbus Iris, Inc., priority 2012, published 2014)
